Reference: patent publication US5221616A, “Prevention of spontaneous complement activation in mammalian biological fluids” (Quidel Corporation, priority 1988, dated 1993)

Key:
C4 = experiment: polyhydroxyl compounds in Buffer B mixed with EDTA-NHP: C4d fragment EIA; type: biochemical, human; details: final concentration 2M, 22° C. for 48 hr
Experimental: (§1) An extensive series of experiments were conducted to examine the ability of a large variety of polyhydroxyl compounds to prevent the spontaneous activation of C in EDTA-NHP during in vitro storage at 22° C for 48 hr. EDTA-NHP was mixed with an equal volume of Buffer B containing the polyhydroxyl compound to be tested. In these experiments Buffer B consisted of 40 mM EDTA and 30 IU sodium heparin/mL dissolved in deionized water, pH 7.2. The final concentration of polyhydroxyl compound dissolved in Buffer B varied for each compound due to differences in solubility. For each set of experiments, EDTA-NHP was also diluted and mixed with an equal volume of PBS (untreated control). The EDTA-NHP samples mixed with each polyhydroxyl compound dissolved in Buffer B and the corresponding untreated controls were incubated at 22° C. for 48 hr, stored at -70° C. and subsequently assayed for C4d, iC3b, C3d,g/iC3b and Bb complement fragment levels as well as for circulating immune complex levels using the Raji Cell Replacement EIA. […] This conclusion was based upon the iC3b percent protection values determined for each of the polyhydroxyl compounds (treated samples) as listed in FIG. 14.
(§2) The concentrations, expressed as μg analyte/mL, of a number of different activation products of spontaneous complement activation were measured in the course of these experiments. In an effort to normalize the data obtained from the various determinations so that the results from different assays could be directly compared to one another, a percent protection value was calculated for each analyte measured. The precent protection values were calculated by dividing the μg analyte/mL in the non-incubated, time-zero control sample by the μg analyte/mL in the experimental sample, multiplied by 100%. A percent protection value of 70 to 130% for any given analyte measured in an experimental sample was considered to indicate that the invention formulation tested was fully effective at providing protection against the occurrence of spontaneous complement activation. Ideally, the effective composition formulation would provide full protection against the occurrence of spontaneous complement activation in a complement-containing sample for all of the analytes measured. In fact, this was the case with several polyhydroxyl compounds when they were present in sufficiently high concentrations in a preferred embodiment of the invention.

Factor B = target: T1, Factor B (Homo sapiens, UniProt P00751); experiment: polyhydroxyl compounds in Buffer B mixed with EDTA-NHP: Bb fragment EIA; type: biochemical; details: final concentration 2M, 22° C. for 48 hr
T1 construct: from tissue; host or cells: normal human EDTA plasma (EDTA-NHP)
Experimental: as §1, with “control).” for “control). The EDTA-NHP samples mixed with each polyhydroxyl compound dissolved in Buffer B and the corresponding untreated controls were incubated at 22° C. for 48 hr, stored at -70° C. and subsequently assayed for C4d, iC3b, C3d,g/iC3b and Bb complement fragment levels as well as for circulating immune complex levels using the Raji Cell Replacement EIA.”
The concentrations, expressed as μg analyte/mL, of a number of different activation products of spontaneous complement activation were measured in the course of these experiments. In an effort to normalize the data obtained from the various determinations so that the results from different assays could be directly compared to one another, a percent protection value was calculated for each analyte measured. […]

complement = experiment: protection against spontaneous complement activation in complement-containing samples during in vitro storage (summary of fragment EIAs); type: biochemical, human
Experimental: A method for screening compounds to determine the complement preventing effectiveness thereof is described in detail in the course of the following experimental description and discussion. The method essentially comprises treating complement-containing samples with various doses of the test compounds, storing the thus-treated sample at conventional storage temperature for a minimum of about 48 hours and determining the extent of complement activation which occurs during the storage period by performing assays on the sample for various complement activation products. The results are compared with determination of the level of the same activation products at the beginning of the storage period, i.e., a non-incubated control sample. A non-treated control, comprising an identical sample diluted with phosphate buffered saline (PBS) in a volume ratio identical to that of the sample and polyhydroxyl solution is similarly assayed.
as §2
A percent protection value range of 70 to 130% was used as a criterion to define that a given invention embodiment was able to provide full protection against spontaneous complement activation for the following reasons: The coefficient of variation for the EIA kits employed in these studies ranged from 10-30% when analyte levels were measured in the very low range of values found in freshly-drawn normal human plasma samples. Therefore, in order to ensure that a given result fell within the variability range of the assays employed, a percent protection value between 70 and 130% was considered to represent a fully protective effect.

T1 sequence (P00751 26-764): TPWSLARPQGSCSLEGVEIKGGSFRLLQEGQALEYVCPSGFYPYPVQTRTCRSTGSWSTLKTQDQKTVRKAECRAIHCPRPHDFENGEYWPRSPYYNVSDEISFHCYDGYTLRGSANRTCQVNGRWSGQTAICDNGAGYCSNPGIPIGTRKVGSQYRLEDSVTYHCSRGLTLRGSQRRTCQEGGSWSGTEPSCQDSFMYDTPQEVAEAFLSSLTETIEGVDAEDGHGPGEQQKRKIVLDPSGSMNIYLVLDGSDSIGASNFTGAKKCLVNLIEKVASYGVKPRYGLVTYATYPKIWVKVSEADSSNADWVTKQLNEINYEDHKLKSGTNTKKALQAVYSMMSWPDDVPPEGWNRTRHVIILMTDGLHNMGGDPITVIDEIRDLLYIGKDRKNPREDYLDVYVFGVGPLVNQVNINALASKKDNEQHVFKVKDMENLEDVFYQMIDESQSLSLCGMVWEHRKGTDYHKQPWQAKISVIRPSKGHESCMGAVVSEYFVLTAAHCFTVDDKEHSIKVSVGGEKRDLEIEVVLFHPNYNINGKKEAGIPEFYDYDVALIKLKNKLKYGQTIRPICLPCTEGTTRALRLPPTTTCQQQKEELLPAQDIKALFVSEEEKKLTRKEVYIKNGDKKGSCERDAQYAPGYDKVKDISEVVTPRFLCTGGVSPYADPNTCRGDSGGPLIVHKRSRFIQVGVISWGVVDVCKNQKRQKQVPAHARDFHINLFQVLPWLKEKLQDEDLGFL

SMILES: OC[C@H]1O[C@@H](O)[C@H](O)[C@@H](O)[C@@H]1O [β-D-glucose]
- prevention of spontaneous activation of C4 (C4d fragment production) (C4): completely prevented
- prevention of spontaneous activation of Factor B (Bb fragment production) (Factor B): completely prevented
- final concentration identified as particularly effective (complement; added to a complement-containing sample): ≥ 1.33 M
- range of final concentrations found to provide protection against spontaneous complement activation (complement; complement-containing samples during in vitro storage): 0.5 to 4 M
- acceptable range of final concentration at which spontaneous C activation will be prevented (complement; ingredient of the formulation): ≥ 1.3 M
